{
  "source": "PubChem BioAssay (NCI)",
  "assay_in_all_cases": "DTP human tumour cell line panel, 48 h",
  "key": {"[1]": {"tested_on": "NCI-H23 lung"}, "[2]": {"tested_on": "T-47D breast"}, "[3]": {"tested_on": "HCT-116 colon"}, "[4]": {"tested_on": "SR leukemia"}, "[5]": {"tested_on": "MCF7 breast"}, "[6]": {"tested_on": "MDA-N"}, "[7]": {"tested_on": "OVCAR-3 ovarian"}, "[8]": {"tested_on": "SNB-75 CNS"}, "[9]": {"tested_on": "DU-145 prostate"}, "[10]": {"tested_on": "UO-31 renal"}, "[11]": {"tested_on": "PC-3 prostate"}, "[12]": {"tested_on": "TK-10 renal"}, "[13]": {"tested_on": "UACC-257 melanoma"}, "[14]": {"tested_on": "NCI/ADR-RES ovarian"}, "[15]": {"tested_on": "A549 NSCLC"}, "[16]": {"tested_on": "HT29 colon"}, "[17]": {"tested_on": "ACHN renal"}, "[18]": {"tested_on": "SK-MEL-2 melanoma"}, "[19]": {"tested_on": "EKVX NSCLC"}, "[20]": {"tested_on": "HCC-2998 colon"}},
  "note": "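Dose response: 5 concentrations. Exposure: 48 h. Format: 96-well plates. Endpoint: linear interpolation; highest concentration if not reached. TGI denotes the concentration required for complete inhibition of growth.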",
  "data": [
    {"compound": "c1ccc2c(c1)c1c(n2CCOCCN2CCOCC2)CCCC1", "values": [
      {"measurement": "TGI", "setting": "[1]", "result": "> 100", "unit": "µM"},
      {"measurement": "TGI", "setting": "[2]", "result": "> 100", "unit": "µM"},
      {"measurement": "TGI", "setting": "[3]", "result": "> 100", "unit": "µM"},
      {"measurement": "TGI", "setting": "[4]", "result": "> 100", "unit": "µM"},
      {"measurement": "TGI", "setting": "[5]", "result": "> 100", "unit": "µM"},
      {"measurement": "TGI", "setting": "[6]", "result": "> 100", "unit": "µM"},
      {"measurement": "TGI", "setting": "[7]", "result": "> 100", "unit": "µM"},
      {"measurement": "TGI", "setting": "[8]", "result": 70.2, "unit": "µM"},
      {"measurement": "TGI", "setting": "[9]", "result": "> 100", "unit": "µM"},
      {"measurement": "TGI", "setting": "[10]", "result": "> 100", "unit": "µM"},
      {"measurement": "TGI", "setting": "[11]", "result": "> 100", "unit": "µM"},
      {"measurement": "TGI", "setting": "[12]", "result": 58.6, "unit": "µM"},
      {"measurement": "TGI", "setting": "[13]", "result": 47.8, "unit": "µM"},
      {"measurement": "TGI", "setting": "[14]", "result": 54.9, "unit": "µM"},
      {"measurement": "TGI", "setting": "[15]", "result": "> 100", "unit": "µM"},
      {"measurement": "TGI", "setting": "[16]", "result": 31.6, "unit": "µM"},
      {"measurement": "TGI", "setting": "[17]", "result": "> 100", "unit": "µM"},
      {"measurement": "TGI", "setting": "[18]", "result": 52.4, "unit": "µM"},
      {"measurement": "TGI", "setting": "[19]", "result": "> 100", "unit": "µM"}
    ]},
    {"compound": "C=CCNC(=S)N=Nc1c(O)[nH]c2ccc([N+](=O)[O-])cc12", "values": [
      {"measurement": "TGI", "setting": "[1]", "result": "> 100", "unit": "µM"},
      {"measurement": "TGI", "setting": "[2]", "result": 87.4, "unit": "µM"},
      {"measurement": "TGI", "setting": "[3]", "result": "> 100", "unit": "µM"},
      {"measurement": "TGI", "setting": "[4]", "result": "> 100", "unit": "µM"},
      {"measurement": "TGI", "setting": "[5]", "result": "> 100", "unit": "µM"},
      {"measurement": "TGI", "setting": "[6]", "result": "> 100", "unit": "µM"},
      {"measurement": "TGI", "setting": "[7]", "result": "> 100", "unit": "µM"},
      {"measurement": "TGI", "setting": "[9]", "result": "> 100", "unit": "µM"},
      {"measurement": "TGI", "setting": "[10]", "result": "> 100", "unit": "µM"},
      {"measurement": "TGI", "setting": "[11]", "result": "> 100", "unit": "µM"},
      {"measurement": "TGI", "setting": "[12]", "result": "> 100", "unit": "µM"},
      {"measurement": "TGI", "setting": "[13]", "result": "> 100", "unit": "µM"},
      {"measurement": "TGI", "setting": "[14]", "result": "> 100", "unit": "µM"},
      {"measurement": "TGI", "setting": "[20]", "result": "> 100", "unit": "µM"},
      {"measurement": "TGI", "setting": "[15]", "result": "> 100", "unit": "µM"},
      {"measurement": "TGI", "setting": "[16]", "result": "> 100", "unit": "µM"},
      {"measurement": "TGI", "setting": "[17]", "result": "> 100", "unit": "µM"},
      {"measurement": "TGI", "setting": "[18]", "result": "> 100", "unit": "µM"},
      {"measurement": "TGI", "setting": "[19]", "result": "> 100", "unit": "µM"}
    ]},
    {"compound": "CCC1=NC(C(F)(F)F)(C(F)(F)F)N=C(N2CCOCC2)O1", "values": [
      {"measurement": "TGI", "setting": "[1]", "result": "> 100", "unit": "µM"},
      {"measurement": "TGI", "setting": "[2]", "result": "> 100", "unit": "µM"},
      {"measurement": "TGI", "setting": "[3]", "result": "> 100", "unit": "µM"},
      {"measurement": "TGI", "setting": "[4]", "result": "> 100", "unit": "µM"},
      {"measurement": "TGI", "setting": "[5]", "result": "> 100", "unit": "µM"},
      {"measurement": "TGI", "setting": "[6]", "result": "> 100", "unit": "µM"},
      {"measurement": "TGI", "setting": "[7]", "result": "> 100", "unit": "µM"},
      {"measurement": "TGI", "setting": "[8]", "result": "> 100", "unit": "µM"},
      {"measurement": "TGI", "setting": "[9]", "result": "> 100", "unit": "µM"},
      {"measurement": "TGI", "setting": "[10]", "result": "> 100", "unit": "µM"},
      {"measurement": "TGI", "setting": "[11]", "result": "> 100", "unit": "µM"},
      {"measurement": "TGI", "setting": "[12]", "result": "> 100", "unit": "µM"},
      {"measurement": "TGI", "setting": "[13]", "result": "> 100", "unit": "µM"},
      {"measurement": "TGI", "setting": "[14]", "result": "> 100", "unit": "µM"},
      {"measurement": "TGI", "setting": "[20]", "result": "> 100", "unit": "µM"},
      {"measurement": "TGI", "setting": "[15]", "result": "> 100", "unit": "µM"},
      {"measurement": "TGI", "setting": "[16]", "result": "> 100", "unit": "µM"},
      {"measurement": "TGI", "setting": "[17]", "result": "> 100", "unit": "µM"},
      {"measurement": "TGI", "setting": "[18]", "result": "> 100", "unit": "µM"},
      {"measurement": "TGI", "setting": "[19]", "result": "> 100", "unit": "µM"}
    ]},
    {"compound": "Cn1ccnc1C(O)(c1nccn1C)c1nccn1C", "values": [
      {"measurement": "TGI", "setting": "[1]", "result": "> 100", "unit": "µM"},
      {"measurement": "TGI", "setting": "[4]", "result": "> 100", "unit": "µM"},
      {"measurement": "TGI", "setting": "[8]", "result": "> 100", "unit": "µM"},
      {"measurement": "TGI", "setting": "[10]", "result": "> 100", "unit": "µM"},
      {"measurement": "TGI", "setting": "[12]", "result": "> 100", "unit": "µM"},
      {"measurement": "TGI", "setting": "[13]", "result": "> 100", "unit": "µM"},
      {"measurement": "TGI", "setting": "[20]", "result": "> 100", "unit": "µM"},
      {"measurement": "TGI", "setting": "[16]", "result": "> 100", "unit": "µM"},
      {"measurement": "TGI", "setting": "[17]", "result": "> 100", "unit": "µM"},
      {"measurement": "TGI", "setting": "[18]", "result": "> 100", "unit": "µM"},
      {"measurement": "TGI", "setting": "[19]", "result": "> 100", "unit": "µM"}
    ]}
  ]
}
